Data from publication PMC10728895, “Stapled Phd Peptides Inhibit Doc Toxin Induced Growth Arrest in Salmonella” (ACS Chemical Biology, 2023).
Non-standard residues stand in square brackets, D forms with d. Residues, ends and D or L forms follow the SMILES beside them. Nle = CCCC[C@H](N)C(=O)O

test system: DocSTm toxin; settings: DocSTm 5 μM, peptide 50 μM, pH 8.0; average ± SD, replicates 3-48 (Table S3)
Method: The thermal shift assay was performed using a Mx3005P qPCR System (Agilent) collecting fluorescence data with a temperature ramp of 25 to 95 °C. Samples were prepared in a buffer containing 20 mM K2HPO4 and 50 mM (NH4)2SO4 at pH 8.0, with a final concentration of recombinant Doc protein at 5 μM and Phd peptides at 50 μM. SYPRO Orange dye (Sigma-Aldrich, 5000X stock in DMSO) was used to monitor protein denaturation in a final concentration of 3×. The final sample volume was 20 μL. Each condition was prepared in triplicate in each independent experiment. The melting curves were plotted using GraphPad Prism 9 (GraphPad Software, USA), and the melting temperatures were obtained by fitting the sigmoidal section of the curves to a Boltzmann sigmoid function. For the calculation of thermal shifts ΔTm, the average melting temperature of free DocSTm toxin as determined in the respective peptide measurement cycles was subtracted from the average melting temperature of DocSTm in the presence of the peptide (Table S3).

SMILES	Average Tm of DocSTm in the presence of peptide [°C]
CCCC[C@H](NC(=O)[C@H](Cc1c[nH]c2ccccc12)NC(C)=O)C(=O)N[C@@H](CCCNC(=N)N)C(=O)N[C@@H](CC(=O)O)C(=O)N[C@@H](CCC(=O)O)C(=O)N[C@@H](Cc1ccccc1)C(=O)N[C@@H](C)C(=O)N[C@@H](C)C(=O)N[C@H](C(=O)N[C@@H](CCCC)C(=O)N[C@@H](C)C(=O)N[C@H](C(=O)N[C@@H](Cc1c[nH]cn1)C(=O)NCC(=O)N[C@@H](CC(N)=O)C(=O)N[C@@H](CCC(=O)O)C(=O)N[C@@H](CC(C)C)C(=O)N[C@@H](CCCNC(=N)N)C(=O)N[C@@H](CCC(=O)O)C(=O)N[C@@H](CC(C)C)C(=O)N[C@@H](C)C(=O)N[C@@H](CC(=O)O)C(=O)N[C@@H](CCCCN)C(=O)O)C(C)C)[C@@H](C)CC [Peptide 2] (Ac-W[Nle]RDEFAAI[Nle]AVHGNELRELADK-OH)	66.4 ± 0.2
CCCC[C@H](NC(=O)[C@H](Cc1c[nH]c2ccccc12)NC(C)=O)C(=O)N[C@@H](CC(=O)O)C(=O)N[C@@H](CCCNC(=N)N)C(=O)N[C@@H](CCC(=O)O)C(=O)N[C@@H](Cc1ccccc1)C(=O)N[C@@H](C)C(=O)N[C@@H](C)C(=O)N[C@H](C(=O)N[C@@H](CCCC)C(=O)N[C@@H](C)C(=O)N[C@H](C(=O)N[C@@H](Cc1c[nH]cn1)C(=O)NCC(=O)N[C@@H](CC(N)=O)C(=O)N[C@@H](CCC(=O)O)C(=O)N[C@@H](CC(C)C)C(=O)N[C@@H](CCCNC(=N)N)C(=O)N[C@@H](CCC(=O)O)C(=O)N[C@@H](CC(C)C)C(=O)N[C@@H](C)C(=O)N[C@@H](CC(=O)O)C(=O)N[C@@H](CCCCN)C(=O)O)C(C)C)[C@@H](C)CC [Peptide 3] (Ac-W[Nle]DREFAAI[Nle]AVHGNELRELADK-OH)	67.4 ± 0.2
CCCC[C@H](NC(=O)[C@H](Cc1c[nH]c2ccccc12)NC(C)=O)C(=O)N[C@@H](CC(=O)O)C(=O)N[C@@H](CC(=O)O)C(=O)N[C@@H](CCCNC(=N)N)C(=O)N[C@@H](Cc1ccccc1)C(=O)N[C@@H](C)C(=O)N[C@@H](C)C(=O)N[C@H](C(=O)N[C@@H](CCCC)C(=O)N[C@@H](C)C(=O)N[C@H](C(=O)N[C@@H](Cc1c[nH]cn1)C(=O)NCC(=O)N[C@@H](CC(N)=O)C(=O)N[C@@H](CCC(=O)O)C(=O)N[C@@H](CC(C)C)C(=O)N[C@@H](CCCNC(=N)N)C(=O)N[C@@H](CCC(=O)O)C(=O)N[C@@H](CC(C)C)C(=O)N[C@@H](C)C(=O)N[C@@H](CC(=O)O)C(=O)N[C@@H](CCCCN)C(=O)O)C(C)C)[C@@H](C)CC [Peptide 4] (Ac-W[Nle]DDRFAAI[Nle]AVHGNELRELADK-OH)	56.8 ± 2.1
CCCC[C@H](NC(=O)[C@H](Cc1c[nH]c2ccccc12)NC(C)=O)C(=O)N[C@@H](CC(=O)O)C(=O)N[C@@H](CC(=O)O)C(=O)N[C@@H](CCC(=O)O)C(=O)N[C@@H](Cc1ccccc1)C(=O)N[C@@H](CCCNC(=N)N)C(=O)N[C@@H](C)C(=O)N[C@H](C(=O)N[C@@H](CCCC)C(=O)N[C@@H](C)C(=O)N[C@H](C(=O)N[C@@H](Cc1c[nH]cn1)C(=O)NCC(=O)N[C@@H](CC(N)=O)C(=O)N[C@@H](CCC(=O)O)C(=O)N[C@@H](CC(C)C)C(=O)N[C@@H](CCCNC(=N)N)C(=O)N[C@@H](CCC(=O)O)C(=O)N[C@@H](CC(C)C)C(=O)N[C@@H](C)C(=O)N[C@@H](CC(=O)O)C(=O)N[C@@H](CCCCN)C(=O)O)C(C)C)[C@@H](C)CC [Peptide 5] (Ac-W[Nle]DDEFRAI[Nle]AVHGNELRELADK-OH)	69.7 ± 0.7
CCCC[C@H](NC(=O)[C@H](Cc1c[nH]c2ccccc12)NC(C)=O)C(=O)N[C@@H](CC(=O)O)C(=O)N[C@@H](CC(=O)O)C(=O)N[C@@H](CCC(=O)O)C(=O)N[C@@H](Cc1ccccc1)C(=O)N[C@@H](C)C(=O)N[C@@H](CCCNC(=N)N)C(=O)N[C@H](C(=O)N[C@@H](CCCC)C(=O)N[C@@H](C)C(=O)N[C@H](C(=O)N[C@@H](Cc1c[nH]cn1)C(=O)NCC(=O)N[C@@H](CC(N)=O)C(=O)N[C@@H](CCC(=O)O)C(=O)N[C@@H](CC(C)C)C(=O)N[C@@H](CCCNC(=N)N)C(=O)N[C@@H](CCC(=O)O)C(=O)N[C@@H](CC(C)C)C(=O)N[C@@H](C)C(=O)N[C@@H](CC(=O)O)C(=O)N[C@@H](CCCCN)C(=O)O)C(C)C)[C@@H](C)CC [Peptide 6] (Ac-W[Nle]DDEFARI[Nle]AVHGNELRELADK-OH)	67.3 ± 1.4
CCCC[C@H](NC(=O)[C@H](Cc1c[nH]c2ccccc12)NC(C)=O)C(=O)N[C@@H](CC(=O)O)C(=O)N[C@@H](CC(=O)O)C(=O)N[C@@H](CCC(=O)O)C(=O)N[C@@H](Cc1ccccc1)C(=O)N[C@@H](C)C(=O)N[C@@H](C)C(=O)N[C@H](C(=O)N[C@@H](CCCC)C(=O)N[C@@H](CCCNC(=N)N)C(=O)N[C@H](C(=O)N[C@@H](Cc1c[nH]cn1)C(=O)NCC(=O)N[C@@H](CC(N)=O)C(=O)N[C@@H](CCC(=O)O)C(=O)N[C@@H](CC(C)C)C(=O)N[C@@H](CCCNC(=N)N)C(=O)N[C@@H](CCC(=O)O)C(=O)N[C@@H](CC(C)C)C(=O)N[C@@H](C)C(=O)N[C@@H](CC(=O)O)C(=O)N[C@@H](CCCCN)C(=O)O)C(C)C)[C@@H](C)CC [Peptide 7] (Ac-W[Nle]DDEFAAI[Nle]RVHGNELRELADK-OH)	70.2 ± 0.3
CCCC[C@H](NC(=O)[C@H](Cc1c[nH]c2ccccc12)NC(C)=O)C(=O)N[C@@H](CC(=O)O)C(=O)N[C@@H](CC(=O)O)C(=O)N[C@@H](CCC(=O)O)C(=O)N[C@@H](Cc1ccccc1)C(=O)N[C@@H](C)C(=O)N[C@@H](C)C(=O)N[C@H](C(=O)N[C@@H](CCCC)C(=O)N[C@@H](C)C(=O)N[C@@H](CCCNC(=N)N)C(=O)N[C@@H](Cc1c[nH]cn1)C(=O)NCC(=O)N[C@@H](CC(N)=O)C(=O)N[C@@H](CCC(=O)O)C(=O)N[C@@H](CC(C)C)C(=O)N[C@@H](CCCNC(=N)N)C(=O)N[C@@H](CCC(=O)O)C(=O)N[C@@H](CC(C)C)C(=O)N[C@@H](C)C(=O)N[C@@H](CC(=O)O)C(=O)N[C@@H](CCCCN)C(=O)O)[C@@H](C)CC [Peptide 8] (Ac-W[Nle]DDEFAAI[Nle]ARHGNELRELADK-OH)	67.8 ± 0.1
CCCC[C@H](NC(=O)[C@H](Cc1c[nH]c2ccccc12)NC(C)=O)C(=O)N[C@@H](CC(=O)O)C(=O)N[C@@H](CC(=O)O)C(=O)N[C@@H](CCC(=O)O)C(=O)N[C@@H](Cc1ccccc1)C(=O)N[C@@H](C)C(=O)N[C@@H](C)C(=O)N[C@H](C(=O)N[C@@H](CCCC)C(=O)N[C@@H](C)C(=O)N[C@H](C(=O)N[C@@H](Cc1c[nH]cn1)C(=O)NCC(=O)N[C@@H](CCCNC(=N)N)C(=O)N[C@@H](CCC(=O)O)C(=O)N[C@@H](CC(C)C)C(=O)N[C@@H](CCCNC(=N)N)C(=O)N[C@@H](CCC(=O)O)C(=O)N[C@@H](CC(C)C)C(=O)N[C@@H](C)C(=O)N[C@@H](CC(=O)O)C(=O)N[C@@H](CCCCN)C(=O)O)C(C)C)[C@@H](C)CC [Peptide 9] (Ac-W[Nle]DDEFAAI[Nle]AVHGRELRELADK-OH)	72.3 ± 0.4
CCCC[C@H](NC(=O)[C@H](Cc1c[nH]c2ccccc12)NC(C)=O)C(=O)N[C@@H](CC(=O)O)C(=O)N[C@@H](CC(=O)O)C(=O)N[C@@H](CCC(=O)O)C(=O)N[C@@H](Cc1ccccc1)C(=O)N[C@@H](C)C(=O)N[C@@H](C)C(=O)N[C@H](C(=O)N[C@@H](CCCC)C(=O)N[C@@H](C)C(=O)N[C@H](C(=O)N[C@@H](Cc1c[nH]cn1)C(=O)NCC(=O)N[C@@H](CC(N)=O)C(=O)N[C@@H](CCCNC(=N)N)C(=O)N[C@@H](CC(C)C)C(=O)N[C@@H](CCCNC(=N)N)C(=O)N[C@@H](CCC(=O)O)C(=O)N[C@@H](CC(C)C)C(=O)N[C@@H](C)C(=O)N[C@@H](CC(=O)O)C(=O)N[C@@H](CCCCN)C(=O)O)C(C)C)[C@@H](C)CC [Peptide 10] (Ac-W[Nle]DDEFAAI[Nle]AVHGNRLRELADK-OH)	59.5 ± 0.3
CCCC[C@H](NC(=O)[C@H](Cc1c[nH]c2ccccc12)NC(C)=O)C(=O)N[C@@H](CC(=O)O)C(=O)N[C@@H](CC(=O)O)C(=O)N[C@@H](CCC(=O)O)C(=O)N[C@@H](Cc1ccccc1)C(=O)N[C@@H](C)C(=O)N[C@@H](C)C(=O)N[C@H](C(=O)N[C@@H](CCCC)C(=O)N[C@@H](C)C(=O)N[C@H](C(=O)N[C@@H](Cc1c[nH]cn1)C(=O)NCC(=O)N[C@@H](CC(N)=O)C(=O)N[C@@H](CCC(=O)O)C(=O)N[C@@H](CC(C)C)C(=O)N[C@@H](CCCNC(=N)N)C(=O)N[C@@H](CCCNC(=N)N)C(=O)N[C@@H](CC(C)C)C(=O)N[C@@H](C)C(=O)N[C@@H](CC(=O)O)C(=O)N[C@@H](CCCCN)C(=O)O)C(C)C)[C@@H](C)CC [Peptide 11] (Ac-W[Nle]DDEFAAI[Nle]AVHGNELRRLADK-OH)	73.5 ± 1.3
CCCC[C@H](NC(=O)[C@H](Cc1c[nH]c2ccccc12)NC(C)=O)C(=O)N[C@@H](CC(=O)O)C(=O)N[C@@H](CC(=O)O)C(=O)N[C@@H](CCC(=O)O)C(=O)N[C@@H](Cc1ccccc1)C(=O)N[C@@H](C)C(=O)N[C@@H](C)C(=O)N[C@H](C(=O)N[C@@H](CCCC)C(=O)N[C@@H](C)C(=O)N[C@H](C(=O)N[C@@H](Cc1c[nH]cn1)C(=O)NCC(=O)N[C@@H](CC(N)=O)C(=O)N[C@@H](CCC(=O)O)C(=O)N[C@@H](CC(C)C)C(=O)N[C@@H](CCCNC(=N)N)C(=O)N[C@@H](CCC(=O)O)C(=O)N[C@@H](CC(C)C)C(=O)N[C@@H](CCCNC(=N)N)C(=O)N[C@@H](CC(=O)O)C(=O)N[C@@H](CCCCN)C(=O)O)C(C)C)[C@@H](C)CC [Peptide 12] (Ac-W[Nle]DDEFAAI[Nle]AVHGNELRELRDK-OH)	68.3 ± 0.9
